From patent publication US11066398B2, “Small molecule c-Myc inhibitors” (THE SCRIPPS RESEARCH INSTITUTE, priority 2013, dated 2021)
Values after ≈ are worked out from the molar mass of the structure shown. “Also recorded” adds a separate entry of the source. Read-outs that look alike come from different tables or passages of the source.

Key:
MDA-MB-231 = settings: MDA-MB-231, 216 hrs, 2.5% FBS
v-Src = v-Src (Rous sarcoma virus subgroup A, UniProt P00524); settings: CEF, dose response
Protocol: (§5) Data from a representative experiment conducted with the cells derived from a single chicken embryo.
(§6) The assay of oncogene-induced cellular transformation in CEF was also used to determine selectivity of KJ-Pyr-9 for Myc.
(§7) Assay for oncogenic transformation in cell culture. […] CEF were infected with a series of ten-fold dilutions of the indicated virus. Compounds were added to the nutrient agar overlay. Additional compound-containing overlay was added every 3 days until experimental end point.

SW-480 = settings: SW-480, 25 or 50 μM, 24 hrs
SUM-159PT = settings: 120 hrs, 2.5% FBS
[1] = tested on: xenograft of MDA-MB-231 cells; assay: MDA-MB-231 xenograft in nude mice; assay type: in vivo, mouse; settings: 10 mg/kg daily i.p.
Protocol: When tumors reached a volume of 100 mm^3 half of the mice were given daily i.p. injections of 10 mg/kg KJ-PYR-9 and the other half received vehicle only. Tumor growth was followed for 31 days. (A) Tumor volumes of treated and untreated animals. (B) Tumor weights of treated and untreated animals. (C) Time course of tumor volumes.
To test the in vivo effectiveness of KJ-Pyr-9, nude mice received a xenograft of MDA-MB-231 cells suspended in Matrigel and injected subcutaneously into the left and right flanks. When the tumors had reached an average volume of 100 mm^3, mice were treated daily with 10 mg/kg KJ-Pyr-9 or vehicle control by intraperitoneal injection for 31 days. […] At the conclusion of the experiment the tumors were extracted and weighed. […] Treatment with KJ-Pyr-9 had no effect on the body weight of the animals.
Xenograft experiments. […] Tumor volume and mouse weight were measured daily. […] Tumors were weighed.
Statistical methods. Tumor volumes were calculated using (length)×(width)^2. Tumor volumes were evaluated using Efron's Bootstrap (ISBN:0412042312) procedures as implemented in the R statistics program (Wu and Houghton, J. Biopharma. Stat. 19:755-762, 2009). Mean volumes and 90% confidence intervals were determined using bootstrap resampling with 10^6 randomizations and graphed using the ggplot2 package (ISBN:0387981403). P-values were determined using the resampling permutation method with 10^6 randomizations.

[2] = tested on: NDRG1 (N-myc downregulated gene 1); assay: NDRG1 expression by Western blot in MDA-MB-231 and NCI-H460 cells; assay type: cell-based, human; settings: 20 μM, 24 hrs
Protocol: (§1) NCI-H460 cells were grown in RPMI medium, and MDA-MB-231 cells were grown in DMEM medium; both media contained 10% FBS. KJ-Pyr-9 and 10058-F4 were added at a concentration of 20 μM and the cells were treated for 24 hrs before Western blot analysis.
(§2) Interference with Myc transcriptional activity of Myc affects the transcription of a large number of target genes and can function as activator or repressor. […] NDRG1 is a direct transcriptional target of Myc that acts as a repressor of this gene. For comparison, we used the previously identified inhibitor of MYC-MAX dimerization that binds to the disordered monomer and prevents Myc from adopting a conformation needed for the interaction with MAX (Wang et al., Mol. Cancer Ther. 6:2399-2408, 2007; and Huang et al., Exp. Hematol. 34:1480-1489, 2006). Both KJ-Pyr-9 and 10058-F4 cause an increase of NDRG1 expression (FIG. 4).

human fibroblasts (hFB) = settings: 25 or 50 μM, 24 hrs
MYC = assay: Myc levels by Western blot in MDA-MB-231 and NCI-H460 cells; assay type: cell-based, human; settings: 20 μM, 24 hrs
Protocol: as §1, §2

[3] = Pharmacokinetics and tolerability in mice; assay type: in vivo, mouse; settings: for concentration at 4 h: ip, mice, 10 mg/kg intraperitoneally
Protocol: (§3) In vivo activity of KJ-Pyr-9: Previous Myc inhibitors have not been effective in animal model studies. These failures resulted from insufficient affinity toward Myc and poor pharmacokinetic properties.
(§4) Pharmacokinetics. Three mice were injected with 10 mg/kg KJ-Pyr-9 dissolved in 10:10:80 Tween-80:DMSO:5% Dextrose/water intraperitoneally. At 4 hours concentrations of KJ-Pyr-9 in the plasma and in the brain were 3.5 and 12.4 μM respectively. Rats were dosed with 1 mg/kg i.v.; elimination half lives in plasma were approximately 1.84 h (rats).

MOLT-4 = settings: MOLT-4, 25 or 50 μM, 24 hrs
HL-60 = settings: HL-60, 25 or 50 μM, 24 hrs
[4] = tested on: QEF transformed by methylcholanthrene (QT6); settings: 25 or 50 μM, 24 hrs
K-562 = settings: K-562, 25 or 50 μM, 24 hrs
ATG-Myc = ATG-Myc (Homo sapiens, UniProt P01106); assay: Myc-induced oncogenic transformation (focus assay) in chicken embryo fibroblasts; assay type: cell-based; settings: for Inhibition of ATG-Myc focus formation: CEF focus assay, concentration of 10 μM; for Inhibition of Myc oncogenic activity in CEF transformation assay: ATG-Myc; for EOT (efficiency of transformation): focus counts in the presence of inhibitor over focus counts of control plates, CEF infected with RCAS ATG-Myc
Chain of ATG-Myc (P01106 whole entry): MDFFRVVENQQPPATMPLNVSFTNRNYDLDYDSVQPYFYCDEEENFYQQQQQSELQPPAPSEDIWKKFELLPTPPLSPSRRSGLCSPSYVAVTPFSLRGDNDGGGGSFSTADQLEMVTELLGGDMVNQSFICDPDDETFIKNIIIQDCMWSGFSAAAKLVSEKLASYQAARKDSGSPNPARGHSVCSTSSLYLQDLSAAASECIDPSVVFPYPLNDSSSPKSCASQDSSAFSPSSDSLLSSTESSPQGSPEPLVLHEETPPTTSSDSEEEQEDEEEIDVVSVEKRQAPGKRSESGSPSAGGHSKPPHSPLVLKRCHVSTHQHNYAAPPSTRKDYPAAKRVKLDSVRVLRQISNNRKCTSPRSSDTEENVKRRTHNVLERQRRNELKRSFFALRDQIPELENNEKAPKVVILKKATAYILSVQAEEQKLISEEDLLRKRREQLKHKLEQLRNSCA

N-Myc = N-Myc (Homo sapiens, UniProt P04198); settings: CEF, dose response
Chain of N-Myc (P04198 whole entry, species assumed): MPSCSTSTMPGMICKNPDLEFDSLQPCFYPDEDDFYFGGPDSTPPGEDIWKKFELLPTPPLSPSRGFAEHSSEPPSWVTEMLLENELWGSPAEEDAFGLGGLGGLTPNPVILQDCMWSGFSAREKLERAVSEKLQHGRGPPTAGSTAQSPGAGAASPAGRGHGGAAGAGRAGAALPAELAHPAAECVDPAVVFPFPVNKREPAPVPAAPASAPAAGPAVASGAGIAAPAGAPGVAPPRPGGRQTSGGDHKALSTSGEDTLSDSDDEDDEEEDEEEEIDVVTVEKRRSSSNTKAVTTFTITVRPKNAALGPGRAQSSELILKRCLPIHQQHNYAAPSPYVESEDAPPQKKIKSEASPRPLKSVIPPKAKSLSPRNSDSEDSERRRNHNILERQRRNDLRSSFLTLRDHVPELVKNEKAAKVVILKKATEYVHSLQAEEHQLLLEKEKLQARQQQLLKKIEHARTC
Protocol: as §5, §6, §7

Pharmacokinetics in rats = assay type: in vivo, rat; settings: 1 mg/kg i.v.
Protocol: as §3, §4

Solubility in water = assay type: physicochemical
[5] = tested on: cells transformed by v-myc (Q8, QEF/MC29)
MAX homodimerization = MAX homodimerization (Homo sapiens, UniProt P61244); settings: HEK293 cells, 20 μM
Chain of MAX homodimerization (P61244 whole entry): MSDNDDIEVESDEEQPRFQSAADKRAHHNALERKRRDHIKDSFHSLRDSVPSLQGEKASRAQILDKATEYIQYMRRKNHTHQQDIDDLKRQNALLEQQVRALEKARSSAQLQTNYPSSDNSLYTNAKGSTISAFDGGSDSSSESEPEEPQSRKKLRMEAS
Protocol: (§8) We used an efficient and sensitive PCA biosensor which is based on the PPI involving the full length MAX protein and the C-terminal MAX-interaction-domain in MYC (MYC^332-439).
(§9) HEK293 cells were grown in Dulbecco's Modified Eagle's Medium (DMEM) supplemented with 10% fetal bovine serum (FBS). The indicated Rluc-PCA expression constructs were transiently overexpressed in a 24-well plate format. […] Following treatment, the growth medium was exchanged and cells were resuspended in phosphate buffered saline (PBS). Cell suspensions were transferred to white walled 96-well plates and were subjected to bioluminescence analysis using the LMax II 384 luminometer (Molecular Devices). Rluc bioluminescence signals were integrated for 10 sec following addition of the Rluc substrate benzyl-coelenterazine to intact cells (5 μM; Nanolight).

v-Jun = v-Jun (Avian sarcoma virus, UniProt P05411); settings: CEF, dose response
Chain of v-Jun (P05411 whole entry): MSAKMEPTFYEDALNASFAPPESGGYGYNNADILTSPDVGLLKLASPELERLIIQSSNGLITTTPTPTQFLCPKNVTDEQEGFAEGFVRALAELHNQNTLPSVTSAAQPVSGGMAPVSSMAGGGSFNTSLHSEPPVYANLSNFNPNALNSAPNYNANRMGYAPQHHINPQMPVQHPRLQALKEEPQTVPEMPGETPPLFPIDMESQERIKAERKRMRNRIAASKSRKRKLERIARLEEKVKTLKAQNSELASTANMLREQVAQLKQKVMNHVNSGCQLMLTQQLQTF
Protocol: as §5, §6, §7

[6] = tested on: QEF oncogenically transformed by the v-jun oncogene (VJ); settings: 25 or 50 μM, 24 hrs
[7] = tested on: normal quail embryo fibroblasts (QEF); settings: 25 or 50 μM, 24 hrs
[8] = tested on: Burkitt's lymphoma cell lines (Akata, Ramos, Raji); settings: 72 hours
Protocol: (A) Akata, (B) Ramos, (C) Raji. 10^3 cells were seeded per well on 96-well plates and were treated with the indicated concentrations of KJ-Pyr-9 for 72 hours. Cell proliferation was determined by resazurin fluorescence.

NCI-H460 = settings: NCI-H460, 72 hrs, 2.5% FBS
MYC^332-439 with MAX = MYC^332-439 with MAX (Homo sapiens, UniProt P01106); settings: HEK293 cells, 20 μM, compared to PKA RII:RII control biosensor
Chain of MYC^332-439 with MAX (P01106 347-454): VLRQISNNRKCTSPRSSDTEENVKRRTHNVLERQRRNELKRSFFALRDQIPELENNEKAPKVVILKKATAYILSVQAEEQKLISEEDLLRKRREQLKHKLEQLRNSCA
Protocol: as §8, §9

NDRG1 = settings: 10 mg/kg daily i.p., Western blot of frozen tumor samples
Protocol: In order to determine drug activity in tumor cells, protein lysates were prepared from frozen tumor samples and analyzed by Western blot.
Xenograft experiments. […] Cells were suspended in high concentration Matrigel (BD Biosciences) prior to injection. Xenograft tumors were allowed to grow until the average volume of the tumors reached 100 mm^3 as measured by external calipers. At this point, the mice were divided into two groups. […] Tumor volume and mouse weight were measured daily. Vehicle used in all cases was 10:10:80 DMSO:Tween-80:5% dextrose in water. The mice were treated for a period of 31 days. At the end of the experiment, the mice were euthanized and tumors excised. Tumors were weighed. Samples of each tumor were fixed in formalin for histology and frozen for Western blotting. All vertebrate experiments were conducted with the approval of the TSRI IACUC.

v-src, and v-jun = settings: CEF specificity assay
Protocol: as §7
The specificity of the inhibitory activities of the analog compounds was also examined.

Chain of v-Src (P00524 whole entry): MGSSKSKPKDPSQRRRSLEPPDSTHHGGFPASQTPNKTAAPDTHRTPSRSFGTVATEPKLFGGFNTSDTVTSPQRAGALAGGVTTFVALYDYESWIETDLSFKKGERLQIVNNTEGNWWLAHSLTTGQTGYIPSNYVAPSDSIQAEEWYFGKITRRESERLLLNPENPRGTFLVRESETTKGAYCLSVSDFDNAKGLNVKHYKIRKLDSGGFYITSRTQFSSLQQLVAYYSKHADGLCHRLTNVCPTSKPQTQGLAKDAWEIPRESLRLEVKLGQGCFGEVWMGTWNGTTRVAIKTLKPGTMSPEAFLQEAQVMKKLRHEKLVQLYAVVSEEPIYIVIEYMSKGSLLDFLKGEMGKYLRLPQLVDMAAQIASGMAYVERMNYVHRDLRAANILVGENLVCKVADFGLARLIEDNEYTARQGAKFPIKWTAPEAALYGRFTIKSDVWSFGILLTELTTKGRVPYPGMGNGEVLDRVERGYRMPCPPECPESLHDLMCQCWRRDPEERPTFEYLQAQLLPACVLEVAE

SMILES: NC(=O)c1ccc(-c2cc(-c3ccc([N+](=O)[O-])cc3)nc(-c3ccco3)c2)cc1 [CG-RS-44, 4-(2-(furan-2-yl)-6-(4-nitrophenyl)pyridin-4-yl)benzamide]
- Cell proliferation (MDA-MB-231): inhibited
- Inhibition of oncogenic transformation by v-Src (v-Src): unaffected
- Cell proliferation (SW-480): not affected
- Cell proliferation (SUM-159PT): inhibited
- Body weight of the animals ([1]; 31 days): no effect
- Tumor volume ([1]; by day 31): had not increased significantly
- Tumor weight ([1]; end of experiment (31 days)): halt tumor growth
- Onset of inhibition of tumor growth ([1]; nude mice): noted after eight days of treatment
- NDRG1 expression [2]: increase
- Cell proliferation (human fibroblasts (hFB)): not affected
- Effect on Myc levels (MYC): only a slight effect
- Acute toxicity ([3]; dose of 10 mg/kg): no signs of acute toxicity
- concentration at 4 h ([3]; mouse, brain, read-out: Concentration in the brain): 12.4 µM
- Blood brain barrier penetration ([3]; mouse, in vivo): crossed the blood brain barrier
- Brain versus blood concentration ([3]; mouse, in vivo): higher concentrations in brain tissue than in the blood
- concentration at 4 h ([3]; mouse, plasma, read-out: Concentration in the plasma): 3.5 µM
- Cell proliferation (MOLT-4): strongly inhibited
- Cell proliferation (HL-60): strongly inhibited
- Cell growth [4]: only slightly impaired in their growth
- Cell proliferation (K-562): strongly inhibited
- Dose dependence of inhibition of ATG-Myc focus formation (ATG-Myc; 0-20 μM (0, 1.25, 2.5, 5, 10, and 20 μM)): dose-dependent inhibition
- Comparison of IC50 values for ATG-Myc focus formation (ATG-Myc; CEF assay): better than all analogs tested
- Inhibition of ATG-Myc focus formation (ATG-Myc): no foci formation
- Inhibition of Myc oncogenic activity in CEF transformation assay (ATG-Myc; listed as KJ-Pyr-9): effective; also recorded: strongly inhibited
- Inhibition of oncogenic activity of N-Myc (N-Myc): strongly inhibited
- Elimination half life in plasma (Pharmacokinetics in rats): approximately 1.84 h
- solubility (Solubility in water): 12.5 µM (≈ 4.82 µg/mL)
- Cell growth [5]: significantly more affected
- MAX homodimerization (Rluc PCA) (MAX homodimerization): interfered with MAX homodimerization, albeit to a lesser degree
- Inhibition of oncogenic transformation by v-Jun (v-Jun): inhibited at significantly higher concentrations
- Cell growth [6]: only slightly impaired in their growth
- Cell growth [7]: only slightly impaired in their growth
- Cell proliferation [8]: very sensitive
- Cell proliferation (NCI-H460): inhibited
- Complex formation of MYC^332-439 with MAX (Rluc PCA) (MYC^332-439 with MAX): selectively reduced complex formation
- Expression of NDRG1 in tumor lysates (NDRG1): significantly enhanced

SMILES: N#Cc1ccc(-c2cc(-c3ccc(C(N)=O)cc3)cc(-c3ccco3)n2)cc1 [CG-RS-47]
- Inhibition of ATG-Myc focus formation (ATG-Myc): no foci formation
- Specificity for inhibiting Myc over v-src, 111047R and v-jun (v-src, and v-jun): some degrees of specificity

SMILES: NC(=O)c1ccc(-c2cc(-c3ccc([N+](=O)[O-])cc3)nc(-c3ccco3)c2)o1 [CG-RS-50, 5-(2-(furan-2-yl)-6-(4-nitrophenyl)pyridin-4-yl)furan-2-carboxamide]
- Inhibition of ATG-Myc focus formation (ATG-Myc): some inhibiting activities
- Inhibition of Myc oncogenic activity in CEF transformation assay (ATG-Myc): effective

SMILES: NC(=O)c1ccc(-c2cc(-c3ccc(C(F)(F)F)cc3)nc(-c3ccco3)c2)cc1 [CG-RS-54]
- Inhibition of ATG-Myc focus formation (ATG-Myc): some inhibiting activities

SMILES: NC(=O)c1ccc(-c2cc(-c3ccc(OC(F)(F)F)cc3)nc(-c3ccco3)c2)cc1 [CG-RS-55]
- Inhibition of ATG-Myc focus formation (ATG-Myc): some inhibiting activities

SMILES: CS(=O)(=O)c1ccc(-c2cc(-c3ccc(C(N)=O)cc3)cc(-c3ccco3)n2)cc1 [CG-RS-58]
- Inhibition of ATG-Myc focus formation (ATG-Myc): no inhibition

SMILES: NC(=O)c1ccc(-c2cc(-c3ccc(SC(F)(F)F)cc3)nc(-c3ccco3)c2)cc1 [CG-RS-61]
- Inhibition of ATG-Myc focus formation (ATG-Myc): no inhibition

SMILES: COC(=O)c1ccc(-c2cc(-c3ccc(C(N)=O)cc3)cc(-c3ccco3)n2)cc1 [CG-RS-64]
- Inhibition of ATG-Myc focus formation (ATG-Myc): no inhibition

SMILES: COC(=O)c1cccc(-c2cc(-c3ccc(C(N)=O)cc3)cc(-c3ccco3)n2)c1 [CG-RS-70]
- Cell growth in CEF focus assay (ATG-Myc): slight decrease in cell growth
- Inhibition of ATG-Myc focus formation (ATG-Myc): no foci formation

SMILES: NC(=O)c1ccc(-c2cc(-c3ccc(Br)cc3)nc(-c3ccc([N+](=O)[O-])cc3)c2)cc1 [CG-RS-90]
- Inhibition of ATG-Myc focus formation (ATG-Myc): no inhibition

SMILES: NC(=O)c1ccc(-c2cc(-c3ccc([N+](=O)[O-])cc3)nc(-c3ccccc3Br)c2)cc1 [CG-RS-91]
- Inhibition of ATG-Myc focus formation (ATG-Myc): no inhibition

SMILES: NC(=O)c1ccc(-c2cc(-c3ccc([N+](=O)[O-])cc3)nc(-c3cccc(Br)n3)c2)cc1 [CG-RS-106]
- Inhibition of ATG-Myc focus formation (ATG-Myc): no inhibition

SMILES: NC(=O)c1ccc(-c2cc(-c3ccc([N+](=O)[O-])cc3)nc(-c3ccc(Br)cn3)c2)cc1 [CG-RS-123]
- Inhibition of ATG-Myc focus formation (ATG-Myc): no inhibition

SMILES: NC(=O)c1ccc(-c2cc(-c3ccc([N+](=O)[O-])cc3)nc(-c3ccccn3)c2)cc1 [CG-RS-128]
- Inhibition of ATG-Myc focus formation (ATG-Myc): no inhibition

SMILES: NC(=O)c1ccc(-c2cc(-c3ccncc3)nc(-c3ccc([N+](=O)[O-])cc3)c2)cc1 [CG-RS-129]
- Cell growth in CEF focus assay (ATG-Myc): slight decrease in cell growth
- Inhibition of ATG-Myc focus formation (ATG-Myc): no foci formation
- Specificity for inhibiting Myc over v-src, 111047R and v-jun (v-src, and v-jun): some degrees of specificity

SMILES: CCc1ccc(/C=C2/SC(=S)NC2=O)cc1 [Compound 10058-F4, reference compound]
- NDRG1 expression [2]: increase
- Effect on Myc levels (MYC): strong decrease

SMILES: NC(=O)c1ccc(-c2ccc(-c3cc(-c4ccccc4)nc(-c4ccco4)c3)cc2)cc1 [KJ-Pyr-4, 4′-(2-(furan-2-yl)-6-phenylpyridin-4-yl)-[1,1′-biphenyl]-4-carboxamide]
- EOT (efficiency of transformation) (ATG-Myc): 1.12

SMILES: COc1ccc(-c2cc(-c3ccc(C(N)=O)o3)cc(-c3ccco3)n2)cc1 [KJ-Pyr-6, 5-(2-(furan-2-yl)-6-(4-methoxyphenyl)pyridin-4-yl)furan-2-carboxamide]
- EOT (efficiency of transformation) (ATG-Myc): 0.79
